Test results reported in ChEMBL document CHEMBL2417389, “Synthesis and optimization of novel (3S,5R)-5-(2,2-dimethyl-5-oxo-4-phenylpiperazin-1-yl)piperidine-3-carboxamides as orally active renin inhibitors” (Bioorg Med Chem, 2013).
Substitutions are numbered along the chain they refer to. The source made the active and inactive calls. No cut-off for these calls is given here.

Experiments:
[1] = biological target: T1, Renin (Homo sapiens, UniProt P00797); assay: Inhibition of trypsin-activated human recombinant renin using (Arg-Glu(EDANS)-Ile-His-Pro-Phe-His-Leu-Val-Ile-His-Thr-Lys(DABCYL)-Arg) as substrate incubated for 10 mins prior to substrate addition measured after 90 mins by fluorescence assay
T1 sequence (P00797 whole entry): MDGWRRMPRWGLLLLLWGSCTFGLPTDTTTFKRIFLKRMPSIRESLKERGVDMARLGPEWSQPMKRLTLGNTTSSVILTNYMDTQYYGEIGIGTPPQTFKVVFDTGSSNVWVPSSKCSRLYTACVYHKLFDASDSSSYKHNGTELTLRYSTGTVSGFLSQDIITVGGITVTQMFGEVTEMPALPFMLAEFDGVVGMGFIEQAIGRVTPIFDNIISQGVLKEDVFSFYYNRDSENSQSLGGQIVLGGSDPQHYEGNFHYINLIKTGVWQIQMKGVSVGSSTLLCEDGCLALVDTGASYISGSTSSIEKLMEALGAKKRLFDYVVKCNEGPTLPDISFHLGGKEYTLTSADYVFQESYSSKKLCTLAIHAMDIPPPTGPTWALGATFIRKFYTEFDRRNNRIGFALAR

[2] = biological target: T2, Renin (Macaca fascicularis) (UniProt Q6DLS0); assay: Ratio of compound IC50 to Aliskiren hemifumarate IC50 for cynomolgus monkey plasma renin
T2 sequence (whole entry): T1 sequence (P00797 whole entry) with T68A, I214L, S235A

[3] = biological target: T3, Renin (Macaca fascicularis, UniProt Q6DLS0); assay: Inhibition of cynomolgus monkey plasma renin assessed as angiotensin 1 level after 60 mins by competitive radioimmunoassay
T3 sequence (Q6DLS0 whole entry): T1 sequence (P00797 whole entry) with T68A, I214L, S235A

[4] = AUC (0 to 24 hrs) in cynomolgus monkey at 3 mg/kg, po; assay type: ADME, organism-based, Macaca fascicularis; parameters: time < 24 hr, dose 3 mg/kg, route oral; details: plasma
[5] = AUC (0 to 24 hrs) in Sprague-Dawley rat at 10 mg/kg, po; assay type: ADME, organism-based; parameters: time < 24 hr, dose 10 mg/kg, route oral; details: plasma
[6] = test system: Rattus norvegicus; assay: Antihypertensive activity in double transgenic rat assessed as reduction in mean arterial pressure at 30 mg/kg, po measured for 48 hrs post dose; assay type: functional, organism-based; parameters: dose 30 mg/kg; details: Artery
[7] = test system: Cynomolgus monkey; assay: Antihypertensive activity in cynomolgus monkey assessed as reduction in mean arterial pressure at 10 mg/kg, po measured for 24 hrs post dose; assay type: functional, organism-based; parameters: dose 10 mg/kg; details: Macaca fascicularis, Artery
[8] = Oral bioavailability in Sprague-Dawley rat at 30 mg/kg; assay type: ADME, organism-based; details: in vivo
[9] = Oral bioavailability in cynomolgus monkey at 10 mg/kg; assay type: ADME, organism-based, Macaca fascicularis; details: in vivo
[10] = biological target: T1, Renin; assay: Inhibition of human plasma renin by competitive radioimmunoassay
[11] = AUC (0 to 24 hrs) in cynomolgus monkey at 10 mg/kg, po; assay type: ADME, organism-based, Macaca fascicularis; parameters: time < 24 hr, dose 10 mg/kg, route oral; details: plasma
[12] = AUC (0 to 24 hrs) in Sprague-Dawley rat at 30 mg/kg, po; assay type: ADME, organism-based; parameters: time < 24 hr, dose 30 mg/kg, route oral; details: plasma
[13] = biological target: CYP2D6 (Homo sapiens, UniProt P10635); assay: Inhibition of CYP2D6 (unknown origin) at 10 uM; assay type: ADME
[14] = species: Cavia porcellus; assay: Cardiotoxicity in guinea pig assessed as action potential duration at 90% repolarization of right ventricular papillary muscle at 30 uM by glass microelectrode method relative to baseline; assay type: toxicity, Muscle tissue
[15] = species: Cavia porcellus; assay: Cardiotoxicity in guinea pig assessed as maximum dV/dt in right ventricular papillary muscle at 30 uM by glass microelectrode method relative to baseline; assay type: toxicity, Muscle tissue
[16] = biological target: hERG (KCNH2) (Homo sapiens, UniProt Q12809); assay: Inhibition of human ERG channel at 30 uM by patch clamp technique
[17] = biological target: T4, Renin (Homo sapiens) (UniProt P00797); assay: Ratio of compound IC50 to Aliskiren hemifumarate IC50 for human plasma renin
T4 sequence (whole entry): T1 sequence (P00797 whole entry)

[18] = Plasma protein binding in monkey by ultracentrifugation method; assay type: ADME, cell-free, Macaca mulatta; details: rhesus monkey, read-out: PPB (converted)
[19] = Half life in Sprague-Dawley rat at 30 mg/kg, po and 1 mg/kg, iv; assay type: ADME, organism-based; details: in vivo
[20] = Metabolic stability in monkey liver microsomes assessed as compound remaining after 30 mins; assay type: ADME, Macaca mulatta, Microsome; details: rhesus monkey, read-out: Stability
[21] = test system: Salmonella typhimurium; assay: Genotoxicity in Salmonella typhimurium TA98 by Ames assay; assay type: toxicity, organism-based; details: salmonella enterica subsp. enterica serovar typhimurium
[22] = biological target: CYP3A4 (Homo sapiens, UniProt P08684); assay: Inhibition of CYP3A4 (unknown origin) at 10 uM; assay type: ADME
[23] = Plasma protein binding in human by ultracentrifugation method; assay type: ADME, cell-free; details: read-out: PPB (converted)
[24] = Lipophilicity, log D of the compound at pH 7.4; assay type: physicochemical; details: buffer
[25] = Plasma protein binding in rat by ultracentrifugation method; assay type: ADME, cell-free; details: read-out: PPB (converted)
[26] = Clearance in cynomolgus monkey at 10 mg/kg, and 1 mg/kg, iv; assay type: ADME, organism-based, Macaca fascicularis; details: in vivo
[27] = Cmax in cynomolgus monkey at 10 mg/kg, po and 1 mg/kg, iv; assay type: ADME, organism-based, Macaca fascicularis; details: in vivo
[28] = test system: Salmonella typhimurium; assay: Genotoxicity in Salmonella typhimurium TA100 by Ames assay; assay type: toxicity, organism-based; details: salmonella enterica subsp. enterica serovar typhimurium
[29] = Cmax in Sprague-Dawley rat at 30 mg/kg, po and 1 mg/kg, iv; assay type: ADME, organism-based; details: in vivo
[30] = Metabolic stability in human liver microsomes assessed as compound remaining after 30 mins; assay type: ADME, Microsome; details: read-out: Stability
[31] = Metabolic stability in rat liver microsomes assessed as compound remaining after 30 mins; assay type: ADME, Microsome; details: read-out: Stability
[32] = Half life in cynomolgus monkey at 10 mg/kg, po and 1 mg/kg, iv; assay type: ADME, organism-based, Macaca fascicularis; details: in vivo
[33] = test system: Cynomolgus monkey; assay: Antihypertensive activity in po dosed cynomolgus monkey assessed as reduction in mean arterial pressure administered 3 days post furosemide-challenge measured after 24 hrs; assay type: functional, organism-based; details: Macaca fascicularis; Artery
[34] = Volume of distribution at steady state in cynomolgus monkey at 10 mg/kg, po and 1 mg/kg, iv; assay type: ADME, organism-based, Macaca fascicularis; details: in vivo, read-out: Vdss
[35] = Volume of distribution at steady state in Sprague-Dawley rat at 30 mg/kg, po and 1 mg/kg, iv; assay type: ADME, organism-based; details: in vivo, read-out: Vdss
[36] = test system: Rattus norvegicus; assay: Antihypertensive activity in double transgenic rat assessed as reduction in mean arterial pressure at 30 mg/kg, po after 24 hrs; assay type: functional, organism-based; parameters: dose 30 mg/kg; details: Artery
[37] = Clearance in Sprague-Dawley rat at 30 mg/kg, po and 1 mg/kg, iv; assay type: ADME, organism-based; details: in vivo

Chain of hERG (KCNH2) (Q12809 whole entry): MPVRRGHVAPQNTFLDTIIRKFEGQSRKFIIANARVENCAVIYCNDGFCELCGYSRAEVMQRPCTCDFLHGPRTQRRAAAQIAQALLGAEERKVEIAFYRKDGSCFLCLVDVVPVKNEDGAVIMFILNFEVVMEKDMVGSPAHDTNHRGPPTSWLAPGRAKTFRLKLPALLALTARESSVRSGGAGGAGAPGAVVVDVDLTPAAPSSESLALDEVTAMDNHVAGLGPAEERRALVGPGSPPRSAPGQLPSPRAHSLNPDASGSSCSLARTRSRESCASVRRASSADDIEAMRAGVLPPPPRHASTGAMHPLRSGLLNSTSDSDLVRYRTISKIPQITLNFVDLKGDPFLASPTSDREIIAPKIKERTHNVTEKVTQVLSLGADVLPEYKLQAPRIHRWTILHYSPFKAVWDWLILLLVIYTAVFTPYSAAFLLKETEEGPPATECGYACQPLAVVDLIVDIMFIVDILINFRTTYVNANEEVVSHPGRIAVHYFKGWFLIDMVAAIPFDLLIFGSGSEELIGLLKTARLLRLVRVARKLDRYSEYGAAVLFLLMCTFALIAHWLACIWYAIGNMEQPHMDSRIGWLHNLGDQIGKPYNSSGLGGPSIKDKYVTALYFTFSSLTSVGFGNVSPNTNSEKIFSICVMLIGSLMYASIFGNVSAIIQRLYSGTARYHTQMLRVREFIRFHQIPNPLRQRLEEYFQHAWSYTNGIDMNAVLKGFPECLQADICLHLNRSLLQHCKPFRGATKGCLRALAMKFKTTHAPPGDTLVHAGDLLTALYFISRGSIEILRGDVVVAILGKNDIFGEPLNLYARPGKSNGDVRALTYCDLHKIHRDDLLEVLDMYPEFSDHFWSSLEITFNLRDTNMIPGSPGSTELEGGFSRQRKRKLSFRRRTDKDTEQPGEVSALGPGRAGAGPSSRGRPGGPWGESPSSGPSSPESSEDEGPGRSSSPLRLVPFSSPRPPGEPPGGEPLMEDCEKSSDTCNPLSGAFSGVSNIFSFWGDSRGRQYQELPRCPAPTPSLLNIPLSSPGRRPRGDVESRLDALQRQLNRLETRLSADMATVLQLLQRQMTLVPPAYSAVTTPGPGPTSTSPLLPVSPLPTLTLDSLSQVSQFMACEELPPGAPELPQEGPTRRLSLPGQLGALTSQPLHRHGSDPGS
Chain of CYP2D6 (P10635 whole entry): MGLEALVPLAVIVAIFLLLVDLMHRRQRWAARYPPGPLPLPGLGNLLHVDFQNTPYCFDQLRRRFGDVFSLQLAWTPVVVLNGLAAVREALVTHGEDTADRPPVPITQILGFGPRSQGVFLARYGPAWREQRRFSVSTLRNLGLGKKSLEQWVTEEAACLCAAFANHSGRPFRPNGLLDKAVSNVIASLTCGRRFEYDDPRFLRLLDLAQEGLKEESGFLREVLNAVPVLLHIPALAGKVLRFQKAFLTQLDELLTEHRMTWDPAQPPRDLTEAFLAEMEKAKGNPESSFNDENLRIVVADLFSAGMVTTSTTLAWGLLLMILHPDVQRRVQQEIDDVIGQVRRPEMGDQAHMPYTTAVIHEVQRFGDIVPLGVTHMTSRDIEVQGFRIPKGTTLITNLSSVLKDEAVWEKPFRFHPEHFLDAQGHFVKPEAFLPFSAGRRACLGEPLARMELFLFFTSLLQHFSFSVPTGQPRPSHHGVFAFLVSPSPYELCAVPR
Chain of CYP3A4 (P08684 whole entry): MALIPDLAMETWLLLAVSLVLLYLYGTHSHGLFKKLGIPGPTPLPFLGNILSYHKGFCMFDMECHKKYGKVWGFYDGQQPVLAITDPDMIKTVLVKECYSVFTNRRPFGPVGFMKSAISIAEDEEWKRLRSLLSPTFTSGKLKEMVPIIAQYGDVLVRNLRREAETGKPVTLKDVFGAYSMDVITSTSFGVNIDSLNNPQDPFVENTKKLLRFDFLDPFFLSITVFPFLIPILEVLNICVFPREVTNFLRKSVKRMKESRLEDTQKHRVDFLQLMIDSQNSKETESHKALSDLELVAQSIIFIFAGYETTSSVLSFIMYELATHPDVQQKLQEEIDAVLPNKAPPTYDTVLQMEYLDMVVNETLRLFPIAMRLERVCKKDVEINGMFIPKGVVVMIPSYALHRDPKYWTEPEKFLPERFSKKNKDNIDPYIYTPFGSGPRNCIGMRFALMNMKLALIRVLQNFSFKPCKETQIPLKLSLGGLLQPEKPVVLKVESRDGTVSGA

## CC[C@@H](NC(=O)[C@@H]1CNC[C@H](N2CC(=O)N(c3ccccc3Cl)CC2(C)C)C1)c1ccc(Cl)cc1
[1]
  IC50: 5.2 nM
[2]
  Ratio IC50: 11
[3]
  IC50: 55 nM

## CC(C)C[C@@H](NC(=O)[C@@H]1CNC[C@H](N2CC(=O)N(c3ccccc3Cl)CC2(C)C)C1)c1ccccc1
[2]
  Ratio IC50: 1

## CC(C)CC(CC(C)C)NC(=O)[C@@H]1CNC[C@H](N2CC(=O)N(c3ccccc3Cl)CC2(C)C)C1
[2]
  Ratio IC50: 2.8

## CC[C@@H](NC(=O)[C@@H]1CNC[C@H](N2CC(=O)N(c3ccccc3Cl)CC2(C)C)C1)c1ccccc1F
[1]
  IC50: 3.3 nM
[2]
  Ratio IC50: 2.3
[3]
  IC50: 11 nM

## CC[C@@H](NC(=O)[C@@H]1CNC[C@H](N2CC(=O)N(c3ccccc3Cl)CC2(C)C)C1)c1cccc(Cl)c1
[1]
  IC50: 2.3 nM
[2]
  Ratio IC50: 5
[3]
  IC50: 25 nM

## CC[C@@H](NC(=O)[C@@H]1CNC[C@H](N2CC(=O)N(c3ccccc3Cl)CC2(C)C)C1)c1cccc(F)c1
[1]
  IC50: 1.8 nM
[2]
  Ratio IC50: 2.8
[3]
  IC50: 14 nM

## CC[C@@H](NC(=O)[C@@H]1CNC[C@H](N2CC(=O)N(c3ccccc3Cl)CC2(C)C)C1)c1ccccc1.O=C(O)/C=C/C(=O)O
[4]
  AUC(0-t) at 24 h: 730 ng·h/mL
[2]
  Ratio IC50: 1.8
[5]
  AUC(0-t) at 24 h: 1500 ng·h/mL

## Cc1ccccc1N1CC(C)(C)N([C@H]2CNC[C@@H](C(=O)N[C@H](CC(C)C)c3ccc(F)cn3)C2)CC1=O.O=C(O)/C=C/C(=O)O
[6]
  AUC: -581 mmHg.hr
[7]
  AUC: -267 mmHg.hr
[8]
  bioavailability: 20%
[9]
  bioavailability: 25%
[10]
  IC50: 3.6 nM
[11]
  AUC(0-t) at 24 h: 3190 ng·h/mL
[12]
  AUC(0-t) at 24 h: 1100 ng·h/mL
[13]
  inhibition at 10 µM: 1%
[1]
  IC50: 1.6 nM
[14]
  Activity: -1%
[15]
  Activity: -11.6%
[16]
  inhibition at 30 µM: 5.2%
[17]
  Ratio IC50: 1.2
[18]
  fraction unbound: 0.45
[19]
  half-life: 5.4 h
[20]
  remaining at 0.5 h: 84%
[21]
  Activity: Non-toxic
[22]
  inhibition at 10 µM: 30%
[23]
  fraction unbound: 0.62
[24]
  logD: 2
[25]
  fraction unbound: 0.37
[26]
  clearance: 9.5 mL/min/kg
[27]
  Cmax: 604 ng/mL
[28]
  Activity: Non-toxic
[29]
  Cmax: 204 ng/mL
[30]
  remaining at 0.5 h: 100%
[2]
  Ratio IC50: 0.9
[31]
  remaining at 0.5 h: 89%
[32]
  half-life: 7.9 h
[33]
  Activity: Dose-dependent effect
[34]
  Vd: 5.4 L/kg
[35]
  Vd: 11 L/kg
[36]
  Activity: Active
[37]
  clearance: 80 mL/min/kg
[3]
  IC50: 7 nM

## CC(C)C[C@@H](NC(=O)[C@@H]1CNC[C@H](N2CC(=O)N(c3ccccc3Cl)CC2(C)C)C1)C(O)C(C)C (stereo partly drawn)
[2]
  Ratio IC50: 0.8

## CC(C)C[C@@H](NC(=O)[C@@H]1CNC[C@H](N2CC(=O)N(c3ccccc3Cl)CC2(C)C)C1)c1ncco1
[1]
  IC50: 1.9 nM
[2]
  Ratio IC50: 1.4
[3]
  IC50: 8.3 nM

## CC[C@@H](NC(=O)[C@@H]1CNC[C@H](N2CC(=O)N(c3ccccc3Cl)CC2(C)C)C1)c1ccc(F)cc1
[1]
  IC50: 2.4 nM
[2]
  Ratio IC50: 3.7
[3]
  IC50: 19 nM

## CC(C)C[C@@H](NC(=O)[C@@H]1CNC[C@H](N2CC(=O)N(c3ccccc3Cl)CC2(C)C)C1)c1cccnc1
[2]
  Ratio IC50: 0.9

## CC(C)C[C@@H](NC(=O)[C@@H]1CNC[C@H](N2CC(=O)N(c3ccccc3Cl)CC2(C)C)C1)c1ccc(F)cn1.O=C(O)/C=C/C(=O)O
[6]
  AUC: -535 mmHg.hr
[7]
  AUC: -194 mmHg.hr
[11]
  AUC(0-t) at 24 h: 2580 ng·h/mL
[13]
  inhibition at 10 µM: 8.3%
[1]
  IC50: 1 nM
[16]
  inhibition at 30 µM: 27%
[22]
  inhibition at 10 µM: 22%
[2]
  Ratio IC50: 2.1
[3]
  IC50: 9.7 nM

## CC(C)C[C@@H](NC(=O)[C@@H]1CNC[C@H](N2CC(=O)N(c3ccccc3Cl)CC2(C)C)C1)c1ccno1
[1]
  IC50: 1.1 nM
[2]
  Ratio IC50: 0.6
[3]
  IC50: 3.3 nM

## CCOC[C@@H](CC(C)C)NC(=O)[C@@H]1CNC[C@H](N2CC(=O)N(c3ccccc3Cl)CC2(C)C)C1.O=C(O)/C=C/C(=O)O
[4]
  AUC(0-t) at 24 h: 60 ng·h/mL
[2]
  Ratio IC50: 0.5

## CCC[C@@H](NC(=O)[C@@H]1CNC[C@H](N2CC(=O)N(c3ccccc3Cl)CC2(C)C)C1)c1ccccc1
[2]
  Ratio IC50: 2

## Cc1ccc(F)cc1N1CC(C)(C)N([C@H]2CNC[C@@H](C(=O)N[C@H](CC(C)C)c3ccc(F)cn3)C2)CC1=O
[6]
  AUC: -606 mmHg.hr
[13]
  inhibition at 10 µM: 11%
[1]
  IC50: 1.3 nM
[16]
  inhibition at 30 µM: 40%
[22]
  inhibition at 10 µM: 44%
[2]
  Ratio IC50: 2.1
[3]
  IC50: 16 nM

## CC(C)C[C@@H](NC(=O)[C@@H]1CNC[C@H](N2CC(=O)N(c3ccccc3Cl)CC2(C)C)C1)c1ccccn1
[1]
  IC50: 1.4 nM
[2]
  Ratio IC50: 3.6
[3]
  IC50: 17 nM

## CC(C)C[C@@H](NC(=O)[C@@H]1CNC[C@H](N2CC(=O)N(c3ccccc3Cl)CC2(C)C)C1)c1cncc(F)c1
[1]
  IC50: 1.7 nM
[2]
  Ratio IC50: 0.8
[3]
  IC50: 6.9 nM
